Laboratory results taken from patent US9302999B2, “Substituted triazoles as herbicides” (E. I. DU PONT DE NEMOURS AND COMPANY, priority 2012, dated 2016).

Assays:
Assay type in all cases: in vivo
[1] = test system: Russian thistle (Salsola kali); assay: Test C pre-/postemergence: Russian thistle; conditions: Preemergence
From the text: Seeds of plant species selected from blackgrass (Alopecurus myosuroides), bromegrass, downy (downy bromegrass, Bromus tectorum), foxtail, green (green foxtail, Setaria viridis), ryegrass, Italian (Italian ryegrass, Lolium multiflorum), winter wheat (Triticum aestivum), wild oat (Avena fatua), galium (catchweed bedstraw, Galium aparine), bermudagrass (Cynodon dactylon), surinam grass (Brachiaria decumbens), cocklebur (common cocklebur, Xanthium strumarium), corn (Zea mays), large crabgrass (Digitaria sanguinalis), woolly cupgrass (Eriochloa villosa), foxtail, giant (giant foxtail, Setaria faberii), goosegrass (Eleusine indica), johnsongrass (Sorghum halepense), kochia (Kochia scoparia), lambsquarters (Chenopodium album), morningglory (Ipomoea coccinea), nightshade (eastern black nightshade, Solanum ptycanthum), nutsedge, yellow (yellow nutsedge, Cyperus esculentus), pigweed (Amaranthus retroflexus), ragweed (common ragweed, Ambrosia elation), soybean (Glycine max), common (oilseed) sunflower (Helianthus annuus), Russian thistle (Salsola kali) and velvetleaf (Abutilon theophrasti) were planted into a blend of loam soil and sand and treated preemergence with test chemicals formulated in a non-phytotoxic solvent mixture which included a surfactant.
At the same time, plants selected from these crop and weed species and also barley (winter barley, Hordeum vulgare), canarygrass (Phalaris minor), chickweed (common chickweed, Stellaria media) windgrass (Apera spica-venti) and deadnettle (henbit deadnettle, Lamium amplexicaule) were planted in pots containing Redi-Earth® planting medium (Scotts Company, 14111 Scottslawn Road, Marysville, Ohio 43041) comprising spaghnum peat moss, vermiculite, wetting agent and starter nutrients and treated with postemergence applications of test chemicals formulated in the same manner. Plants ranged in height from 2 to 18 cm (1- to 4-leaf stage) for postemergence treatments.
(§1) Treated plants and controls were maintained in a greenhouse for 13 to 15 days, after which time all species were compared to controls and visually evaluated. Plant response ratings, summarized in Table C, are based on a scale of 0 to 100 where 0 is no effect and 100 is complete control. A dash (-) response means no test result.

[2] = test system: kochia (Kochia scoparia); assay: Test D pre-/postemergence: kochia
Summary of the method: (§2)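 Visual 0–100 rating versus untreated controls (0 no effect, 100 complete control), taken 14 to 21 days after treatment in a controlled growth environment. Preemergence: silt loam soil. Postemergence: peat moss/vermiculite medium, plants 2 to 18 cm, 1- to 4-leaf stage. Solvent mixture with surfactant.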

[3] = test system: mustard, wild (wild mustard, Sinapis arvensis); assay: Test D pre-/postemergence: mustard, wild
Summary of the method: as §2

[4] = test system: sandbur (southern sandbur, Cenchrus echinatus); assay: Test F pre-/postemergence: sandbur; conditions: Preemergence
From the text: (§3) Seeds of plant species selected from corn (Zea mays), soybean (Glycine max), velvetleaf (Abutilon theophrasti), lambsquarters (Chenopodium album), poinsettia, wild (wild poinsettia, Euphorbia heterophylla), pigweed, palmer (palmer pigweed, Amaranthus palmeri), waterhemp (common waterhemp, Amaranthus rudis), surinam grass (Brachiaria decumbens), crabgrass, Brazil (Brazilian crabgrass, Digitaria horizontalis), panicum, fall (fall panicum Panicum dichotomiflorum), crabgrass, large (large crabgrass, Digitaria sanguinalis), foxtail, giant (giant foxtail, Setaria faberii), foxtail, green (green foxtail Setaria viridis), goosegrass (Eleusine indica), ragweed (common ragweed, Ambrosia elatior), barnyardgrass (Echinochloa crus-galli), sandbur (southern sandbur, Cenchrus echinatus), arrowleaf sida (Sida rhombifolia), ryegrass, Italian (Italian ryegrass, Lolium multiflorum), dayflower, VA (Virginia (VA) dayflower, Commelina virginica), field bindweed (Convolvulus arvensis), cocklebur (common cocklebur, Xanthium strumarium), morningglory (Ipomoea coccinea), nightshade (eastern black nightshade, Solanum ptycanthum), kochia (Kochia scoparia), nutsedge, yellow (yellow nutsedge, Cyperus esculentus), johnsongrass (Sorghum halepense), smartweed (ladysthumb smartweed, Polygonum persicaria), and beggarticks (hairy beggarticks, Bidens pilosa), were planted into a silt loam soil and treated preemergence with test chemicals formulated in a non-phytotoxic solvent mixture which included a surfactant. At the same time, plants selected from these crop and weed species and also pigweed (Amaranthus retroflexus), waterhemp_RES1 (ALS/Triazine resistant common waterhemp, Amaranthus rudis) and waterhemp_RES2 (ALS/HPPD resistant common waterhemp, Amaranthus rudis) were planted in pots containing a planting medium comprising spaghnum peat moss, vermiculite, wetting agent and starter nutrients treated with postemergence applications of some of the test chemicals formulated in the same manner. Plants ranged in height from 2 to 18 cm for postemergence treatments (1- to 4-leaf stage).
as §1, with “14” for “13”, “21” for “15”, “E,” for “C,”

[5] = test system: corn (Zea mays); assay: Test F pre-/postemergence: corn; conditions: Preemergence
From the text: as §3
as §1, with “14” for “13”, “21” for “15”, “E,” for “C,”

[6] = 31 g ai/ha, scale of 0 to 100, 0 is no effect, 100 is complete control
[7] = 62 g ai/ha, scale of 0 to 100, 0 is no effect, 100 is complete control
[8] = 125 g ai/ha, scale 0 to 100, 0 no effect, 100 complete control
[9] = 250 g ai/ha, scale 0 to 100, 0 no effect, 100 complete control
[10] = Postemergence, 31 g ai/ha, scale 0 to 100 (0 no effect, 100 complete control)
[11] = Postemergence, 62 g ai/ha, scale 0 to 100 (0 no effect, 100 complete control)
[12] = Postemergence, 125 g ai/ha, scale 0 to 100, 0 no effect, 100 complete control
[13] = Postemergence, 250 g ai/ha, scale 0 to 100 (0 no effect, 100 complete control)
[14] = Preemergence, 31 g ai/ha, scale 0 to 100, 0 no effect, 100 complete control
[15] = Preemergence, 62 g ai/ha, scale 0 to 100
[16] = Preemergence, 125 g ai/ha, scale 0 to 100
[17] = Preemergence, 250 g ai/ha, scale 0 to 100
[18] = Postemergence, 16 g ai/ha, scale 0 to 100
[19] = Preemergence, 16 g ai/ha, scale 0 to 100, 0 no effect, 100 complete control
[20] = 16 g ai/ha, scale 0 to 100, 0 no effect, 100 complete control
[21] = 31 g ai/ha, scale 0 to 100, 0 no effect, 100 complete control

Structure (SMILES) | Plant response rating, Russian Thistle [1, 6] | Plant response rating, Russian Thistle [1, 7] | Plant response rating, Russian Thistle [1, 8] | Plant response rating, Russian Thistle [1, 9] | Plant response rating: Kochia [2, 10] | Plant response rating: Kochia [2, 11] | Plant response rating: Kochia [2, 12] | Plant response rating: Kochia [2, 13] | Plant response rating, Kochia [2, 14] | Plant response rating, Kochia [2, 15] | Plant response rating, Kochia [2, 16] | Plant response rating, Kochia [2, 17] | Plant response rating: Mustard, Wild [3, 10] | Plant response rating: Mustard, Wild [3, 11] | Plant response rating: Mustard, Wild [3, 12] | Plant response rating: Mustard, Wild [3, 13] | Plant response rating, Mustard, Wild [3, 15] | Plant response rating, Mustard, Wild [3, 16] | Plant response rating, Mustard, Wild [3, 17] | Plant response rating, Kochia [2, 18] | other results
FC(F)(F)COc1nn(-c2ccc(C(F)(F)F)cc2)nc1Cc1ccnc(C(F)(F)F)c1 [Compound 14, 4-[[5-(2,2,2-trifluoroethoxy)-2-[4-(trifluoromethyl)phenyl]-2H-1,2,3-triazol-4-yl]methyl]-2-(trifluoromethyl)pyridine] | 10 | 90 | 95 | 95 | 95 | 95 | 100 | 100 | 10 | 40 | 80 | 90 | 50 | 90 | 100 | 100 | 50 | 90 | 95 | – | Plant response rating, Mustard, Wild [3, 14]: 0
COc1nn(-c2ccc(C(F)(F)F)cc2)nc1Cc1ccnc(C(F)(F)F)c1 [Compound 15, 4-[[5-methoxy-2-[4-(trifluoromethyl)phenyl]-2H-1,2,3-triazol-4-yl]methyl]-2-(trifluoromethyl)pyridine] | 50 | 95 | 100 | – | 90 | 90 | 100 | 100 | 0 | 0 | 70 | 100 | 70 | 100 | 100 | 100 | 100 | 100 | 100 | 20 | Plant response rating, Russian Thistle ([1]; 16 g ai/ha, scale 0 (no effect) to 100 (complete control)): 5; Plant response rating, Mustard, Wild [3, 18]: 0; Plant response rating, Mustard, Wild [3, 14]: 100
Cc1nn(-c2ccc(C(F)(F)F)cn2)nc1Cc1cccc(C(F)(F)F)c1 [Compound 106] | 0 | 5 | 30 | 100 | 60 | 70 | 95 | 100 | 0 | 0 | 30 | 30 | 80 | 80 | 90 | 100 | 50 | 50 | 60 | 60 | Plant response rating, Mustard, Wild [3, 18]: 20; Plant response rating, Mustard, Wild [3, 14]: 20
Cc1nn(-c2ccc(C(F)(F)F)cc2)nc1Oc1ccnc(C(F)(F)F)c1 [Compound 120] | 0 | – | 85 | 100 | 98 | 100 | 100 | 100 | 10 | 30 | 95 | 100 | – | – | – | – | 90 | 100 | 100 | 98 | Plant response rating, Kochia [2, 19]: 0; Plant response rating, Mustard, Wild [3, 19]: 0
COc1nn(-c2ccc(C(F)(F)F)cc2)nc1Cc1ccnc(C(F)F)c1 [Compound 138] | 85 | 90 | 90 | 100 | 95 | 100 | 100 | 100 | – | – | – | – | 90 | 95 | 100 | 100 | – | – | – | 95 | Plant response rating, Mustard, Wild [3, 18]: 75
COc1nn(-c2cccc(F)c2)nc1Cc1ccnc(C(F)(F)F)c1 [Compound 139] | – | – | – | 5 | – | – | – | – | – | – | – | – | – | – | – | – | – | – | – | – | Plant response rating, Sandbur [4, 20]: 0; Plant response rating, Sandbur [4, 21]: 5; Plant response rating, Sandbur ([4]; 125 g ai/ha, scale 0 to 100): 35; Plant response rating, Sandbur ([4]; 250 g ai/ha, scale 0 to 100): 40; Plant response rating, Corn [5, 20]: 0; Plant response rating, Corn [5, 21]: 0; Plant response rating, Corn ([5]; 62 g ai/ha, scale 0 to 100): 0; Plant response rating, Corn ([5]; 125 g ai/ha, scale 0 to 100): 0; Plant response rating, Corn ([5]; 250 g ai/ha, scale 0 to 100): 5
Cc1nn(-c2ccc(F)cc2F)nc1Oc1ccnc(C(F)(F)F)c1 [Compound 146] | 0 | 0 | 80 | 95 | – | – | – | – | – | – | – | – | – | – | – | – | – | – | – | – | Plant response rating, Sandbur [4, 20]: 0; Plant response rating, Sandbur [4, 21]: 0; Plant response rating, Sandbur ([4]; 125 g ai/ha, scale 0 to 100): 25; Plant response rating, Sandbur ([4]; 250 g ai/ha, scale 0 to 100): 70; Plant response rating, Corn [5, 20]: 0; Plant response rating, Corn [5, 21]: 0; Plant response rating, Corn ([5]; 62 g ai/ha, scale 0 to 100): 0; Plant response rating, Corn ([5]; 125 g ai/ha, scale 0 to 100): 0; Plant response rating, Corn ([5]; 250 g ai/ha, scale 0 to 100): 0
